Laboratory results from patent US20010049374A1 (priority 1997, published 2001).

What was measured:
[1] = tested on: angiogenesis/capillary network formation; settings: in vitro; Alliegro and Glaser 1991; cited from earlier work
tumor metastasis = settings: in vivo; Kellen et al. 1988; cited from earlier work
[2] = biological target: T1, urokinase enzyme Abbokinase (Homo sapiens, UniProt P00749); test: Determination of urokinase inhibition (Abbokinase, chromogenic substrate S-2444); format: biochemical; settings: Inhibitory potency against urokinase; substrate S-2444 at 200 μM, enzyme 2-3 nM, pH 7.4, 405 nm; read-out: IC50
T1 construct: purchased Abbott Laboratories, Abbott Park, Ill
Protocol: Several vials were reconstituted as directed on the vial, aliquoted and stored frozen. The enzyme was further diluted in assay buffer and 10 μl was used in the assay. Enzyme concentration in the assay was 2-3 nM. […] The Spectromax® calculated the reaction rates which were used to calculate percent inhibition of the compounds of this invention versus the reaction rate of the enzyme in the absence of any inhibitor. The Ki's of the inhibitors were calculated from the percent inhibition and previously established Km.

For `N=C(N)NC(=O)c1nc(Cl)c(N)nc1N` [Amiloride], the “inhibition of angiogenesis/capillary network formation” value [1] is given as “angiogenesis/capillary network formation in vitro” and the “inhibition of tumor metastasis” value (tumor metastasis) is given as “inhibit tumor metastasis in vivo”.

With “6-[amino(ethoxycarbonyl)imino]-N-[3-(1-methylethoxy)phenyl]-2-naphthalenecarboxamide [Example 226]” the IC50 [2] was over 30 µM.

In the case of “7-Methoxy-8-(1-acetyl-1H-pyrazolyl)-2-naphthalenecarboximidamide [Example 86]”, the IC50 [2] is reported as 3.6 µM.

Compound “6-(aminoiminomethyl)-4-(3-furanyl)-N-(4-pyridinyl)-2-naphthalenecarboxamide [Example 115]” has an IC50 [2] of 0.063 µM.

Work on `COC(=O)c1ccc(COc2ccc3cc(C(=N)N)ccc3c2)cc1` [Example 213] yielded an IC50 [2] of 4.58 µM.

Compound “6-(aminoiminomethyl)-4-(3-furanyl)-N-(2-pyridinyl)-2-naphthalenecarboxamide [Example 146]” has an IC50 [2] of 0.372 µM.
